Test results published in the NIST ThermoML archive (doi:10.1016/j.jct.2017.03.026).
Several values for one entry are separate records, joined by “and”; a condition that tells them apart may be missing. Equal entries are not always repeated. ± gives the expanded uncertainty stated by the source.

Test: molar heat capacity at constant pressure
Details: 101.33 kPa, Crystal, Small (less than 1 g) adiabatic calorimetry

O.O.O.O.O.O=S(=O)([O-])[O-].[Cu+2] [copper(II) sulfate pentahydrate]
Details	molar heat capacity at constant pressure
263.9 K	273.18 ± 1.3 J/K/mol
263.97 K	273.31 ± 1.3 J/K/mol
264.29 K	274.33 ± 1.3 J/K/mol
264.46 K	276.88 ± 1.3 J/K/mol
264.57 K	275.1 ± 1.3 J/K/mol
264.65 K	275.18 ± 1.3 J/K/mol
264.69 K	262.84 ± 0.97 J/K/mol
264.78 K	276.45 ± 1.3 J/K/mol
264.88 K	264.12 ± 0.97 J/K/mol
264.96 K	275.1 ± 1.3 J/K/mol
265.24 K	276.28 ± 1.3 J/K/mol
265.28 K	276.6 ± 1.3 J/K/mol
265.59 K	277.08 ± 1.3 J/K/mol
265.9 K	279.45 ± 1.3 J/K/mol
265.91 K	277.83 ± 1.3 J/K/mol and 277.48 ± 1.3 J/K/mol
266.22 K	277.65 ± 1.3 J/K/mol
266.54 K	279.67 ± 1.3 J/K/mol
266.57 K	280.8 ± 1.3 J/K/mol
266.85 K	280.57 ± 1.3 J/K/mol
267.02 K	283.47 ± 1.3 J/K/mol
267.12 K	265.84 ± 0.97 J/K/mol
267.16 K	281.25 ± 1.3 J/K/mol
267.24 K	282.99 ± 1.3 J/K/mol
267.47 K	265.72 ± 0.98 J/K/mol
267.48 K	282.69 ± 1.3 J/K/mol
267.49 K	288.14 ± 1.3 J/K/mol
267.79 K	284.49 ± 1.3 J/K/mol
267.89 K	286.74 ± 1.3 J/K/mol
268.1 K	286.29 ± 1.3 J/K/mol
268.14 K	289.09 ± 1.3 J/K/mol
268.41 K	287.96 ± 1.3 J/K/mol
268.56 K	290.56 ± 1.3 J/K/mol
268.72 K	290.51 ± 1.3 J/K/mol
269.03 K	293.88 ± 1.4 J/K/mol
269.21 K	298.25 ± 1.4 J/K/mol
269.26 K	299.3 ± 1.4 J/K/mol
269.34 K	297.25 ± 1.5 J/K/mol
269.69 K	302.97 ± 1.5 J/K/mol
269.86 K	308.74 ± 1.5 J/K/mol
270 K	267.7 ± 1 J/K/mol and 309.44 ± 1.7 J/K/mol
270.26 K	267.96 ± 0.99 J/K/mol
270.3 K	319.67 ± 1.6 J/K/mol
270.38 K	339.72 ± 1.7 J/K/mol and 332.91 ± 1.7 J/K/mol
270.48 K	333.13 ± 1.6 J/K/mol
270.59 K	334.95 ± 1.5 J/K/mol
270.88 K	351.88 ± 1.6 J/K/mol
271.09 K	383.64 ± 1.7 J/K/mol
271.16 K	376.43 ± 1.8 J/K/mol
271.44 K	383.42 ± 1.8 J/K/mol
271.46 K	344.42 ± 1.7 J/K/mol
271.62 K	269.24 ± 1 J/K/mol
271.71 K	298.82 ± 1.5 J/K/mol
271.74 K	277.83 ± 1.4 J/K/mol
272.06 K	278.7 ± 1.7 J/K/mol
272.36 K	280.4 ± 1.7 J/K/mol
272.37 K	278.52 ± 1.7 J/K/mol
272.63 K	281.05 ± 1.3 J/K/mol
272.69 K	278.7 ± 1.3 J/K/mol
273.01 K	279.65 ± 1.3 J/K/mol
273.04 K	280.4 ± 1.3 J/K/mol
273.15 K	269.83 ± 0.99 J/K/mol and 270.1 ± 1 J/K/mol
273.27 K	284.34 ± 1.3 J/K/mol
273.33 K	280.47 ± 1.3 J/K/mol
273.64 K	279.37 ± 1.3 J/K/mol
273.74 K	281.2 ± 1.3 J/K/mol
273.8 K	282.84 ± 1.3 J/K/mol
273.88 K	270.91 ± 1 J/K/mol
273.96 K	280.1 ± 1.3 J/K/mol
274.28 K	278.85 ± 1.3 J/K/mol
274.4 K	281.05 ± 1.3 J/K/mol
274.64 K	282.74 ± 1.3 J/K/mol
274.93 K	283.52 ± 1.3 J/K/mol
274.96 K	280.85 ± 1.3 J/K/mol
275.07 K	282.49 ± 1.3 J/K/mol
275.27 K	285.02 ± 1.3 J/K/mol
275.6 K	285.39 ± 1.3 J/K/mol
275.73 K	282.32 ± 1.3 J/K/mol
275.91 K	281.82 ± 1.3 J/K/mol
275.93 K	272.18 ± 1 J/K/mol
276.06 K	284.92 ± 1.3 J/K/mol
276.14 K	271.78 ± 1 J/K/mol
276.23 K	282.52 ± 1.3 J/K/mol
276.26 K	287.86 ± 1.3 J/K/mol
276.39 K	283.24 ± 1.3 J/K/mol
276.54 K	281.92 ± 1.3 J/K/mol
276.86 K	283.12 ± 1.3 J/K/mol
277.05 K	284.94 ± 1.3 J/K/mol
277.17 K	283.69 ± 1.3 J/K/mol
277.18 K	287.21 ± 1.3 J/K/mol
277.48 K	283.57 ± 1.3 J/K/mol
277.71 K	285.67 ± 1.3 J/K/mol
277.8 K	284.34 ± 1.3 J/K/mol
278.11 K	284.89 ± 1.3 J/K/mol
278.31 K	288.04 ± 1.3 J/K/mol
278.37 K	287.66 ± 1.3 J/K/mol
278.38 K	274.55 ± 1 J/K/mol
278.43 K	285.39 ± 1.3 J/K/mol
278.71 K	274.33 ± 1 J/K/mol
278.74 K	285.79 ± 1.3 J/K/mol
279.05 K	283.84 ± 1.3 J/K/mol
279.06 K	284.24 ± 1.3 J/K/mol
279.23 K	285.22 ± 1.3 J/K/mol
279.37 K	283.12 ± 1.3 J/K/mol
279.45 K	283.07 ± 1.3 J/K/mol
279.71 K	282.87 ± 1.3 J/K/mol
279.74 K	283.84 ± 1.3 J/K/mol
280 K	275.2 ± 1 J/K/mol
280.05 K	283.69 ± 1.3 J/K/mol
280.37 K	283.64 ± 1.3 J/K/mol
280.38 K	282.97 ± 1.3 J/K/mol
280.57 K	284.27 ± 1.3 J/K/mol
280.66 K	275.03 ± 1 J/K/mol
280.69 K	284.49 ± 1.3 J/K/mol
281.02 K	283.67 ± 1.3 J/K/mol
281.05 K	283.87 ± 1.3 J/K/mol
281.33 K	283.77 ± 1.3 J/K/mol
281.48 K	276.46 ± 1 J/K/mol
281.65 K	284.82 ± 1.3 J/K/mol
281.7 K	285.57 ± 1.3 J/K/mol
281.71 K	285.19 ± 1.3 J/K/mol
281.97 K	283.94 ± 1.3 J/K/mol
282.27 K	286.17 ± 1.3 J/K/mol
282.29 K	285.04 ± 1.3 J/K/mol
282.39 K	285.19 ± 1.3 J/K/mol
282.6 K	284.74 ± 1.3 J/K/mol
282.84 K	286.54 ± 1.3 J/K/mol
282.91 K	276.63 ± 1 J/K/mol
282.92 K	285.39 ± 1.3 J/K/mol
283.05 K	284.89 ± 1.3 J/K/mol
283.24 K	285.54 ± 1.3 J/K/mol
283.56 K	286.89 ± 1.3 J/K/mol
283.72 K	285.69 ± 1.3 J/K/mol
283.88 K	287.24 ± 1.3 J/K/mol
283.97 K	287.54 ± 1.3 J/K/mol
284.2 K	286.71 ± 1.3 J/K/mol
284.24 K	278.43 ± 1 J/K/mol
284.43 K	286.89 ± 1.3 J/K/mol
284.52 K	286.41 ± 1.3 J/K/mol
284.89 K	287.61 ± 1.3 J/K/mol
285.09 K	286.69 ± 1.3 J/K/mol
285.11 K	288.04 ± 1.3 J/K/mol
285.16 K	279.3 ± 1 J/K/mol
285.21 K	287.79 ± 1.3 J/K/mol
285.23 K	288.34 ± 1.3 J/K/mol
285.54 K	287.61 ± 1.3 J/K/mol
285.76 K	287.46 ± 1.3 J/K/mol
285.86 K	289.01 ± 1.3 J/K/mol
286.18 K	287.86 ± 1.3 J/K/mol
286.25 K	289.39 ± 1.3 J/K/mol
286.42 K	287.76 ± 1.3 J/K/mol
286.51 K	286.29 ± 1.3 J/K/mol
286.83 K	288.26 ± 1.3 J/K/mol
287 K	280.48 ± 1 J/K/mol
287.09 K	288.31 ± 1.3 J/K/mol
287.16 K	288.41 ± 1.3 J/K/mol
287.4 K	289.81 ± 1.3 J/K/mol
287.46 K	280.82 ± 1 J/K/mol
287.49 K	289.64 ± 1.3 J/K/mol
